Source: the supplement of paper PMC10307832

Experiments:
Assay in all cases: relative viability (nuclei count vs DMSO), 5 days (fraction); higher = more cells survive
HCC-44 = tested on: HCC-44
How it was run: (§1)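 Medians of duplicate plates are given as relative viability. That measure is the nuclei count in treated wells divided by the count in vehicle wells. Counts were taken on 4× images of lung cancer cell lines in 1536-well plates, 5 days after pin-tool dosing the day after seeding with one drug alone or a fixed anchor-drug dose plus five library-drug doses (not always all listed) in √10 steps.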

LCLC-97TM1 = tested on: LCLC-97TM1
How it was run: as §1

LCLC-103H = tested on: LCLC-103H
How it was run: as §1

NCI-H3122 = tested on: NCI-H3122
How it was run: as §1

NCI-H727 = tested on: NCI-H727
How it was run: as §1

NCI-H647 = tested on: NCI-H647
How it was run: as §1

RERF-LC-KJ = tested on: RERF-LC-KJ
How it was run: as §1

CAL-12T = tested on: CAL-12T
How it was run: as §1

NCI-H1650 = tested on: NCI-H1650
How it was run: as §1

SK-LU-1 = tested on: SK-LU-1
How it was run: as §1

NCI-H2228 = tested on: NCI-H2228
How it was run: as §1

NCI-H2405 = tested on: NCI-H2405
How it was run: as §1

BEN = tested on: BEN
How it was run: as §1

NCI-H1437 = tested on: NCI-H1437
How it was run: as §1

NCI-H2087 = tested on: NCI-H2087
How it was run: as §1

NCI-H1944 = tested on: NCI-H1944
How it was run: as §1

201T = tested on: 201T
How it was run: as §1

NCI-H1793 = tested on: NCI-H1793
How it was run: as §1

NCI-H1395 = tested on: NCI-H1395
How it was run: as §1

HOP-62 = tested on: HOP-62
How it was run: as §1

HCC-827 = tested on: HCC-827
How it was run: as §1

LXF-289 = tested on: LXF-289
How it was run: as §1

NCI-H322M = tested on: NCI-H322M
How it was run: as §1

SMILES: NC(=O)Nc1cc(-c2cccc(F)c2)sc1C(=O)N[C@H]1CCCNC1 [AZD7762] + CC(=O)Nc1cccc(-n2c(=O)n(C3CC3)c(=O)c3c(Nc4ccc(I)cc4F)n(C)c(=O)c(C)c32)c1 [Trametinib] (partner 0.02 µM)
- relative viability (HCC-44; first compound 0.01 µM): 1.13
- relative viability (HCC-44; first compound 0.03162 µM): 1.04
- relative viability (HCC-44; first compound 0.1 µM): 1.12
- relative viability (HCC-44; first compound 0.3162 µM): 1.15
- relative viability (HCC-44; first compound 1 µM): 1.16
- relative viability (LCLC-97TM1; first compound 0.01 µM): 0.199
- relative viability (LCLC-97TM1; first compound 0.03162 µM): 0.214
- relative viability (LCLC-97TM1; first compound 0.1 µM): 0.185
- relative viability (LCLC-97TM1; first compound 0.3162 µM): 0.202
- relative viability (LCLC-97TM1; first compound 1 µM): 0.182
- relative viability (LCLC-103H; first compound 0.01 µM): 0.683
- relative viability (LCLC-103H; first compound 0.03162 µM): 0.674
- relative viability (LCLC-103H; first compound 0.1 µM): 0.712
- relative viability (LCLC-103H; first compound 0.3162 µM): 0.574
- relative viability (LCLC-103H; first compound 1 µM): 0.712
- relative viability (NCI-H3122; first compound 0.01 µM): 0.22
- relative viability (NCI-H3122; first compound 0.03162 µM): 0.231
- relative viability (NCI-H3122; first compound 0.1 µM): 0.223
- relative viability (NCI-H3122; first compound 0.3162 µM): 0.243
- relative viability (NCI-H3122; first compound 1 µM): 0.27
- relative viability (NCI-H727; first compound 0.01 µM): 0.361
- relative viability (NCI-H727; first compound 0.03162 µM): 0.429
- relative viability (NCI-H727; first compound 0.1 µM): 0.358
- relative viability (NCI-H727; first compound 0.3162 µM): 0.366
- relative viability (NCI-H727; first compound 1 µM): 0.299
- relative viability (NCI-H647; first compound 0.01 µM): 0.533
- relative viability (NCI-H647; first compound 0.03162 µM): 0.579
- relative viability (NCI-H647; first compound 0.1 µM): 0.456
- relative viability (NCI-H647; first compound 0.3162 µM): 0.384
- relative viability (NCI-H647; first compound 1 µM): 0.16
- relative viability (RERF-LC-KJ; first compound 0.01 µM): 0.878
- relative viability (RERF-LC-KJ; first compound 0.03162 µM): 0.888
- relative viability (RERF-LC-KJ; first compound 0.1 µM): 0.996
- relative viability (RERF-LC-KJ; first compound 0.3162 µM): 0.874
- relative viability (RERF-LC-KJ; first compound 1 µM): 0.693
- relative viability (CAL-12T; first compound 0.01 µM): 0.391
- relative viability (CAL-12T; first compound 0.03162 µM): 0.402
- relative viability (CAL-12T; first compound 0.1 µM): 0.377
- relative viability (CAL-12T; first compound 0.3162 µM): 0.325
- relative viability (CAL-12T; first compound 1 µM): 0.217
- relative viability (NCI-H1650; first compound 0.01 µM): 0.65
- relative viability (NCI-H1650; first compound 0.03162 µM): 0.659
- relative viability (NCI-H1650; first compound 0.1 µM): 0.631
- relative viability (NCI-H1650; first compound 0.3162 µM): 0.532
- relative viability (NCI-H1650; first compound 1 µM): 0.209
- relative viability (SK-LU-1; first compound 0.01 µM): 0.553
- relative viability (SK-LU-1; first compound 0.03162 µM): 0.609
- relative viability (SK-LU-1; first compound 0.1 µM): 0.393
- relative viability (SK-LU-1; first compound 0.3162 µM): 0.188
- relative viability (SK-LU-1; first compound 1 µM): 0.24
- relative viability (NCI-H2228; first compound 0.01 µM): 0.483
- relative viability (NCI-H2228; first compound 0.03162 µM): 0.668
- relative viability (NCI-H2228; first compound 0.1 µM): 0.461
- relative viability (NCI-H2228; first compound 0.3162 µM): 0.37
- relative viability (NCI-H2228; first compound 1 µM): 0.187
- relative viability (NCI-H2405; first compound 0.01 µM): 0.744
- relative viability (NCI-H2405; first compound 0.03162 µM): 0.57
- relative viability (NCI-H2405; first compound 0.1 µM): 0.557
- relative viability (NCI-H2405; first compound 0.3162 µM): 0.631
- relative viability (NCI-H2405; first compound 1 µM): 0.347
- relative viability (BEN; first compound 0.01 µM): 1.15
- relative viability (BEN; first compound 0.03162 µM): 1.11
- relative viability (BEN; first compound 0.1 µM): 1.09
- relative viability (BEN; first compound 0.3162 µM): 1.09
- relative viability (BEN; first compound 1 µM): 0.968
- relative viability (NCI-H1437; first compound 0.01 µM): 0.561
- relative viability (NCI-H1437; first compound 0.03162 µM): 0.53
- relative viability (NCI-H1437; first compound 0.1 µM): 0.549
- relative viability (NCI-H1437; first compound 0.3162 µM): 0.662
- relative viability (NCI-H1437; first compound 1 µM): 0.494
- relative viability (NCI-H2087; first compound 0.01 µM): 0.211
- relative viability (NCI-H2087; first compound 0.03162 µM): 0.212
- relative viability (NCI-H2087; first compound 0.1 µM): 0.248
- relative viability (NCI-H2087; first compound 0.3162 µM): 0.333
- relative viability (NCI-H2087; first compound 1 µM): 0.254
- relative viability (NCI-H1944; first compound 0.01 µM): 0.443
- relative viability (NCI-H1944; first compound 0.03162 µM): 0.493
- relative viability (NCI-H1944; first compound 0.1 µM): 0.473
- relative viability (NCI-H1944; first compound 0.3162 µM): 0.523
- relative viability (NCI-H1944; first compound 1 µM): 0.496
- relative viability (201T; first compound 0.01 µM): 0.718
- relative viability (201T; first compound 0.03162 µM): 0.749
- relative viability (201T; first compound 0.1 µM): 0.763
- relative viability (201T; first compound 0.3162 µM): 0.724
- relative viability (201T; first compound 1 µM): 0.852
- relative viability (NCI-H1793; first compound 0.01 µM): 0.469
- relative viability (NCI-H1793; first compound 0.03162 µM): 0.485
- relative viability (NCI-H1793; first compound 0.1 µM): 0.456
- relative viability (NCI-H1793; first compound 0.3162 µM): 0.446
- relative viability (NCI-H1793; first compound 1 µM): 0.381
- relative viability (NCI-H1395; first compound 0.01 µM): 1.18
- relative viability (NCI-H1395; first compound 0.03162 µM): 1.12
- relative viability (NCI-H1395; first compound 0.1 µM): 0.92
- relative viability (NCI-H1395; first compound 0.3162 µM): 0.637
- relative viability (NCI-H1395; first compound 1 µM): 0.368
- relative viability (HOP-62; first compound 0.01 µM): 0.363
- relative viability (HOP-62; first compound 0.03162 µM): 0.367
- relative viability (HOP-62; first compound 0.1 µM): 0.407
- relative viability (HOP-62; first compound 0.3162 µM): 0.37
- relative viability (HOP-62; first compound 1 µM): 0.343
- relative viability (HCC-827; first compound 0.01 µM): 0.577
- relative viability (HCC-827; first compound 0.03162 µM): 0.534
- relative viability (HCC-827; first compound 0.1 µM): 0.561
- relative viability (HCC-827; first compound 0.3162 µM): 0.575
- relative viability (HCC-827; first compound 1 µM): 0.376
- relative viability (LXF-289; first compound 0.01 µM): 0.618
- relative viability (LXF-289; first compound 0.03162 µM): 0.699
- relative viability (LXF-289; first compound 0.1 µM): 0.692
- relative viability (LXF-289; first compound 0.3162 µM): 0.458
- relative viability (LXF-289; first compound 1 µM): 0.68
- relative viability (NCI-H322M; first compound 0.01 µM): 0.548
- relative viability (NCI-H322M; first compound 0.03162 µM): 0.583
- relative viability (NCI-H322M; first compound 0.1 µM): 0.526
- relative viability (NCI-H322M; first compound 0.3162 µM): 0.58
- relative viability (NCI-H322M; first compound 1 µM): 0.369
